Test results from PubChem BioAssay (NCI).
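How tested: cells in 96-well plates exposed to compound for 48 hours at five concentrations. GI50 is the concentration that inhibits growth by half. At the TGI there is no net growth.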

Experiments:
Assay in all cases: growth of human tumour cells (NCI), 48 h
[1] = test system: HT29 colon
[2] = test system: NCI-H23 lung
[3] = test system: OVCAR-4 ovarian
[4] = test system: MOLT-4 leukemia
[5] = test system: T-47D breast
[6] = test system: SF-295 CNS
[7] = test system: NCI-H522 lung
[8] = test system: HCT-116 colon
[9] = test system: SK-MEL-5 melanoma
[10] = test system: UACC-257 melanoma
[11] = test system: HOP-62 NSCLC
[12] = test system: SF-539 CNS
[13] = test system: SF-268 CNS
[14] = test system: SR leukemia
[15] = test system: CAKI-1 renal
[16] = test system: MCF7 breast
[17] = test system: HCC-2998 colon
[18] = test system: BT-549 breast
[19] = test system: K-562 leukemia
[20] = test system: RPMI-8226 leukemia
[21] = test system: DU-145 prostate
[22] = test system: NCI-H226 lung
[23] = test system: NCI/ADR-RES ovarian
[24] = test system: CCRF-CEM leukemia
[25] = test system: A549 NSCLC
[26] = test system: SW-620 colon
[27] = test system: SNB-19 CNS
[28] = test system: HS 578T breast
[29] = test system: MDA-MB-435
[30] = test system: COLO 205 colon
[31] = test system: PC-3 prostate
[32] = test system: HOP-92 NSCLC
[33] = test system: EKVX NSCLC
[34] = test system: ACHN renal
[35] = test system: NCI-H460 lung
[36] = test system: OVCAR-3 ovarian
[37] = test system: HL-60(TB) leukemia
[38] = test system: SK-MEL-2 melanoma
[39] = test system: IGROV1 ovarian
[40] = test system: SN12C renal
[41] = test system: MALME-3M melanoma
[42] = test system: SK-MEL-28 melanoma
[43] = test system: LOX IMVI melanoma
[44] = test system: U251 CNS
[45] = test system: KM12 colon
[46] = test system: HCT-15 colon
[47] = test system: MDA-MB-231 breast
[48] = test system: A498 renal
[49] = test system: OVCAR-5 ovarian
[50] = test system: OVCAR-8 ovarian
[51] = test system: SK-OV-3 ovarian
[52] = test system: 786-0 renal
[53] = test system: SNB-75 CNS
[54] = test system: UO-31 renal
[55] = test system: UACC-62 melanoma
[56] = test system: RXF 393 renal
[57] = test system: M14 melanoma
[58] = test system: TK-10 renal

Work on `Clc1ccc(-c2cn(-c3ccccc3)c(-c3ccccc3)n2)c(Cl)c1` yielded a GI50 [1] of 1.79 µM, a TGI [1] of over 50 µM and a GI50 [2] of over 16.2 µM. It also gave a TGI [2] of over 50 µM, a GI50 [3] of 0.884 µM and a TGI [3] of 1.81 µM. For the same molecule, the GI50 [4] was over 20.5 µM, the TGI [4] was over 50 µM and the GI50 [5] was 2.52 µM. For the same molecule, the TGI [5] was over 50 µM, the GI50 [6] was 1.45 µM and the TGI [6] was 4.68 µM. For the same molecule, the GI50 [7] was over 24.2 µM, the TGI [7] was over 50 µM and the GI50 [8] was 1.09 µM. For the same molecule, the TGI [8] was 2.66 µM, the GI50 [9] was 48.5 µM and the TGI [9] was over 50 µM. For the same molecule, the GI50 [10] was over 22.8 µM, the TGI [10] was over 50 µM and the GI50 [11] was 1.36 µM. It also gave a TGI [11] of 5.02 µM, a GI50 [12] of 2.2 µM and a TGI [12] of over 50 µM. For the same molecule, the GI50 [13] was 1.78 µM, the TGI [13] was over 11 µM and the GI50 [14] was 1.05 µM. The TGI [14] was 4.01 µM, the GI50 [15] was 1.2 µM and the TGI [15] was 4.4 µM. For the same molecule, the GI50 [16] was 1.56 µM, the TGI [16] was over 12.3 µM and the TGI [17] was over 25.5 µM. The GI50 [18] was 3.42 µM, the TGI [18] was over 50 µM and the GI50 [19] was over 24.6 µM. For the same molecule, the TGI [19] was over 50 µM, the GI50 [20] was 4.93 µM and the TGI [20] was over 10.2 µM. For the same molecule, the GI50 [21] was 0.892 µM, the TGI [21] was 2.09 µM and the GI50 [22] was over 26 µM. For the same molecule, the TGI [22] was over 50 µM, the GI50 [23] was 3.51 µM and the TGI [23] was over 44.9 µM. It also gave a GI50 [24] of 2.51 µM, a TGI [24] of over 50 µM and a GI50 [25] of 1.77 µM. The GI50 [26] was 1.01 µM, the TGI [26] was 2.07 µM and the GI50 [27] was 6.98 µM. The TGI [27] was over 42.6 µM, the GI50 [28] was 1.27 µM and the TGI [28] was 6.02 µM. For the same molecule, the GI50 [29] was 1.69 µM, the TGI [29] was 10.1 µM and the GI50 [30] was 1.14 µM. The TGI [30] was 3.03 µM, the GI50 [31] was 5.43 µM and the TGI [31] was over 50 µM. It also gave a GI50 [32] of 11.7 µM, a TGI [32] of over 50 µM and a GI50 [33] of over 18.5 µM. The TGI [33] was over 50 µM, the GI50 [34] was 2.22 µM and the TGI [34] was over 50 µM. For the same molecule, the GI50 [35] was 1.09 µM, the TGI [35] was 2.39 µM and the GI50 [36] was 0.861 µM. The TGI [36] was 1.73 µM, the GI50 [37] was 9.74 µM and the TGI [37] was over 50 µM. For the same molecule, the GI50 [38] was over 50 µM, the TGI [38] was over 50 µM and the GI50 [39] was 2.92 µM. The TGI [39] was over 44.8 µM, the GI50 [40] was 4.09 µM and the TGI [40] was over 30.1 µM. It also gave a GI50 [41] of 1.32 µM, a TGI [41] of 6.92 µM and a GI50 [42] of 4.86 µM. It also gave a TGI [42] of over 41.2 µM, a GI50 [43] of over 14 µM and a TGI [43] of over 50 µM. For the same molecule, the GI50 [44] was 1.25 µM, the TGI [44] was 3.83 µM and the GI50 [45] was 0.932 µM. The TGI [45] was 2.02 µM, the GI50 [46] was 2.91 µM and the TGI [46] was over 50 µM. The GI50 [47] was 23 µM, the TGI [47] was over 50 µM and the GI50 [48] was 12.6 µM. The TGI [48] was over 45.1 µM, the GI50 [49] was over 16 µM and the TGI [49] was over 45.1 µM. It also gave a GI50 [50] of 3.18 µM, a TGI [50] of over 31.5 µM and a GI50 [51] of 5.15 µM. The TGI [51] was over 35.7 µM, the GI50 [52] was 1.14 µM and the TGI [52] was 2.56 µM. It also gave a GI50 [53] of 0.864 µM, a TGI [53] of 2.2 µM and a GI50 [54] of 10.2 µM. The TGI [54] was over 50 µM, the GI50 [55] was over 20.2 µM and the TGI [55] was over 50 µM. The GI50 [56] was 2.11 µM, the TGI [56] was 11.9 µM and the GI50 [57] was 2.47 µM. The TGI [57] was over 15.1 µM, the GI50 [58] was 1.14 µM and the TGI [58] was 2.17 µM.

In the case of `COc1ccc(C(=O)N/N=C/c2ccc(O)cc2O)cc1Nc1ccnc(C(F)(F)F)c1`, the GI50 [1] is reported as 3.6 µM, the TGI [1] is reported as over 69.2 µM and the GI50 [2] is reported as 2.39 µM. It also gave a TGI [2] of 20.3 µM, a GI50 [3] of 0.27 µM and a GI50 [4] of 0.357 µM. For the same molecule, the TGI [4] was 2.59 µM, the GI50 [5] was 0.688 µM and the TGI [5] was 15 µM. For the same molecule, the GI50 [6] was 1.07 µM, the TGI [6] was 20.6 µM and the GI50 [7] was 3.22 µM. For the same molecule, the TGI [7] was 27.3 µM, the GI50 [8] was 0.354 µM and the TGI [8] was 8.77 µM. For the same molecule, the GI50 [9] was 0.534 µM, the TGI [9] was 5.03 µM and the GI50 [10] was 1.69 µM. The TGI [10] was 16.9 µM, the GI50 [11] was 0.495 µM and the TGI [11] was 12.7 µM. The GI50 [12] was 0.404 µM, the TGI [12] was 7.78 µM and the GI50 [13] was 0.299 µM. For the same molecule, the TGI [13] was 16.7 µM, the GI50 [14] was 0.148 µM and the TGI [14] was 0.452 µM. For the same molecule, the GI50 [15] was 0.984 µM, the TGI [15] was 15.2 µM and the GI50 [16] was 1.57 µM. The TGI [16] was 16.5 µM, the GI50 [17] was 0.513 µM and the TGI [17] was 22.1 µM. The GI50 [18] was 0.916 µM, the TGI [18] was 23.8 µM and the GI50 [19] was 0.485 µM. It also gave a TGI [19] of over 35.6 µM, a GI50 [20] of 1.16 µM and a TGI [20] of 30.8 µM. For the same molecule, the GI50 [21] was 0.622 µM, the TGI [21] was 15.2 µM and the GI50 [22] was 1.39 µM. It also gave a TGI [22] of 11.6 µM, a GI50 [23] of 11.9 µM and a TGI [23] of over 100 µM. The GI50 [24] was 0.128 µM, the TGI [24] was 1.44 µM and the GI50 [25] was 5.11 µM. It also gave a TGI [25] of over 53.9 µM, a GI50 [26] of 1.16 µM and a TGI [26] of 24.2 µM. The GI50 [27] was 0.816 µM, the TGI [27] was 56.7 µM and the GI50 [28] was 1.01 µM. For the same molecule, the TGI [28] was 15.3 µM, the GI50 [29] was 0.507 µM and the TGI [29] was 21.1 µM. For the same molecule, the GI50 [30] was 0.323 µM, the TGI [30] was 14.3 µM and the GI50 [31] was 0.771 µM. It also gave a TGI [31] of 24.6 µM, a GI50 [32] of 0.347 µM and a TGI [32] of 8.43 µM. The GI50 [33] was 0.482 µM, the TGI [33] was 27.9 µM and the GI50 [34] was 1.54 µM. For the same molecule, the TGI [34] was 35.8 µM, the GI50 [35] was 3.14 µM and the TGI [35] was 12.7 µM. The GI50 [36] was 0.317 µM, the TGI [36] was 17.8 µM and the GI50 [37] was 0.291 µM. For the same molecule, the TGI [37] was 0.923 µM, the GI50 [38] was 9.23 µM and the TGI [38] was 30.6 µM. The GI50 [39] was 0.575 µM, the TGI [39] was 23.4 µM and the GI50 [40] was 1.15 µM. For the same molecule, the TGI [40] was over 47 µM, the GI50 [41] was 0.891 µM and the TGI [41] was over 26.7 µM. It also gave a GI50 [42] of 0.298 µM, a TGI [42] of 4.98 µM and a GI50 [43] of 0.454 µM. The TGI [43] was 16.4 µM, the GI50 [44] was 0.401 µM and the TGI [44] was 29.4 µM. For the same molecule, the GI50 [45] was 1.82 µM, the TGI [45] was 13.9 µM and the GI50 [46] was 2.45 µM. The TGI [46] was over 100 µM, the GI50 [47] was 1.71 µM and the TGI [47] was over 84.7 µM. For the same molecule, the GI50 [48] was 0.193 µM, the TGI [48] was 9.33 µM and the GI50 [49] was 1.16 µM. The TGI [49] was 33 µM, the GI50 [50] was 0.919 µM and the TGI [50] was over 71.2 µM. For the same molecule, the GI50 [51] was 0.725 µM, the TGI [51] was 18.8 µM and the GI50 [52] was 0.998 µM. For the same molecule, the TGI [52] was 9.62 µM, the GI50 [53] was 2.22 µM and the TGI [53] was 49.8 µM. For the same molecule, the GI50 [54] was 2.64 µM, the TGI [54] was over 63.8 µM and the GI50 [55] was 0.448 µM. The TGI [55] was 11.4 µM, the GI50 [56] was 3.3 µM and the TGI [56] was 15.7 µM. For the same molecule, the GI50 [57] was 0.731 µM, the TGI [57] was 5.55 µM and the GI50 [58] was 0.994 µM. It also gave a TGI [58] of 58.6 µM.
